Laboratory results published in patent publication US20250074888A1, “PYRIDAZINE DERIVATIVES AS MODULATORS OF NLRP3 INFLAMMASOME AND RELATED METHODS” (Neumora Therapeutics, Inc., priority 2021, published 2025).

Tests used:
[1] = tested on: IL-6; experiment: IL-6 release from LPS-primed, nigericin-treated THP1 macrophages, Hu IL-6 AlphaLISA; type: cell-based; details: Homo sapiens, THP-1; PMA-differentiated THP1, LPS 20 ng/ml 3 hrs, compound 1 hr, Nigericin 6.7 uM 3 hrs, supernatant
[2] = molecular target: NLRP3 inflammasome (Homo sapiens, UniProt Q96P20); experiment: NLRP3 inflammasome activation in THP1 macrophages (LPS priming, nigericin), IL-1β AlphaLISA; type: cell-based; details: PMA-differentiated THP1, LPS 20 ng/ml 3 hrs, compound 1 hr, Nigericin 6.7 uM 3 hrs, supernatant
NLRP3 inflammasome, sequence (Q96P20 whole entry): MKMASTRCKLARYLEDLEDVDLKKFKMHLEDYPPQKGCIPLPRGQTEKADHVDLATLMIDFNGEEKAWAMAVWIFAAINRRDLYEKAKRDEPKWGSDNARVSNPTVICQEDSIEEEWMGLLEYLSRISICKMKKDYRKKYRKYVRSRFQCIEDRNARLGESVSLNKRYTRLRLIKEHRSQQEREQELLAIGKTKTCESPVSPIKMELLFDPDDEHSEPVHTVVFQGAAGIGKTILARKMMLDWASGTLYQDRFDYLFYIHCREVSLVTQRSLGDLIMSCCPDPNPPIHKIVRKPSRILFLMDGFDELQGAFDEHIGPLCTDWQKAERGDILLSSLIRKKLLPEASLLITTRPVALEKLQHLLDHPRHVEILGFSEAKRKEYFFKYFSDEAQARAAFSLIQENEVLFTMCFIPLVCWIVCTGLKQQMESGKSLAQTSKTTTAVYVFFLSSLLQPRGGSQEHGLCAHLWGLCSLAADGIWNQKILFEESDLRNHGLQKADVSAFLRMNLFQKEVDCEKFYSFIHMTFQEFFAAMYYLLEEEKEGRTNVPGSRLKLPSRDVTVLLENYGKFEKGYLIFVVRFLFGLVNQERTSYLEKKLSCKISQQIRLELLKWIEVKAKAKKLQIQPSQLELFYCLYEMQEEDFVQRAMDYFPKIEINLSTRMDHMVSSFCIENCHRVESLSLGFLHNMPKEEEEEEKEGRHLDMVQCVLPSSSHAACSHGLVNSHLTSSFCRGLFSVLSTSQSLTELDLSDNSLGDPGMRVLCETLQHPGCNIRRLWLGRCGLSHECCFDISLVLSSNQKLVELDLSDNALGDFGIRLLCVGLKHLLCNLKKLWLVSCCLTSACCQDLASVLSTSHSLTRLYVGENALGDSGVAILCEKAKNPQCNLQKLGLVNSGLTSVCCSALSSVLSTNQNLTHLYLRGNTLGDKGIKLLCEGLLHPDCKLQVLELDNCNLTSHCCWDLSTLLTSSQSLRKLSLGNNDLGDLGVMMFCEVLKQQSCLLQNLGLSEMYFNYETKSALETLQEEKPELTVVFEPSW

Row | SMILES | IC50 [1] [nM] | IC50 [2] [nM]
1 | Cc1cc(N[C@@H]2CCCN(C)C2)nnc1-c1ccc(Cl)cc1 [compound 127] | > 10000 | ≤ 10
2 | Cc1ccc(-c2ccc(N[C@@H]3CCCN(C)C3)nn2)c(C)c1 [compound 21] | 5000 to 10000 | 100 to 500
3 | CCN1C[C@H](F)C[C@@H](Nc2cc(C)c(-c3ccc(C(F)(F)F)cc3)nn2)C1 [compound 146] | 5000 to 10000 | ≤ 10
4 | Cc1cc(-c2ccc(C(F)(F)F)cc2C(F)F)nnc1N[C@@H]1CCCN(C)C1 [compound 166] | > 10000 | 10 to 50
5 | Cc1cc(-c2ccc(C(F)(F)F)c(C#N)c2)nnc1N[C@@H]1CCCN(C)C1 [compound 113] | > 10000 | > 1000
6 | Cc1cccc(C(F)F)c1-c1ccc(N[C@@H]2CCCN(C)C2)nn1 [compound 189] | > 10000 | > 1000
7 | CCN1CCC[C@@H](Nc2nnc(-c3ccc(C(F)(F)F)cc3)cc2C)C1 [compound 24] | > 10000 | 100 to 500
8 | Cc1cc(C(F)(F)F)ccc1-c1nnc(N[C@@H]2CCCN(C)C2)cc1O [compound 198] | > 10000 | 500 to 1000
9 | COc1ccc(-c2cc(C)c(N[C@@H]3CCCN(C)C3)nn2)cc1 [compound 58] | > 10000 | > 1000
10 | Cc1cc(-c2ccc(Cl)cc2C#N)nnc1N[C@@H]1CCCN(C)C1 [compound 173] | > 10000 | > 1000
11 | Cc1ccc(-c2cc(C)c(N[C@@H]3CCCN(C)C3)nn2)cc1 [compound 82] | > 10000 | > 1000
12 | Cc1cc(-c2ccc(Cl)cc2F)nnc1N[C@@H]1CCCN(C)C1 [compound 149] | 5000 to 10000 | 100 to 500
13 | Cc1cc(N[C@@H]2CCCN(C)C2)nnc1-c1cccc(F)c1 [compound 45] | > 10000 | > 1000
14 | Cc1cc(N[C@@H]2C[C@@H](F)CN(C(C)C)C2)nnc1-c1ccc(C(F)(F)F)cc1 [compound 144] | 5000 to 10000 | 100 to 500
15 | CN1CCC[C@@H](Nc2nnc(-c3ccc(Cl)cc3)cc2C(F)(F)F)C1 [compound 196] | 1000 to 5000 | 500 to 1000
16 | Cc1cc(-c2ccc(Cl)cc2)nnc1N[C@@H]1CCCN(C)C1 [compound 128] | > 10000 | 100 to 500
17 | Cc1cc(N[C@@H]2CCCN(CC3CC3)C2)nnc1-c1ccc(F)cc1 [compound 70] | > 10000 | ≤ 10
18 | Cc1cc(N[C@@H]2CCCN(C)C2)nnc1-c1ccc(C(F)(F)F)c(F)c1 [compound 26] | > 10000 | 100 to 500
19 | Cc1cc(-c2cccc(C(F)(F)F)c2)nnc1N[C@@H]1CCCN(C)C1 [compound 47] | > 10000 | > 1000
20 | Cc1cc(N(C)[C@@H]2CCCN(C)C2)nnc1-c1ccc(C(F)(F)F)cc1 [compound 142, (R)—N,5-dimethyl-N-(1-methylpiperidin-3-yl)-6-(4-(trifluoromethyl)phenyl)pyridazin-3-amine] | 1000 to 5000 | 100 to 500
21 | Cc1cc(N[C@@H]2CCCCN(C)C2)nnc1-c1ccc(C(F)(F)F)cc1 [compound 176] | > 10000 | 50 to 100
22 | CCc1cccc(-c2nnc(N[C@@H]3CCCN(C)C3)cc2C)c1 [compound 55] | > 10000 | > 1000
23 | Cc1cc(N[C@@H]2CCCN(C)C2)nnc1-c1ccc(F)cc1C#N [compound 96] | > 10000 | > 1000
24 | Cc1cccc(-c2cc(C)c(N[C@@H]3CCCN(C)C3)nn2)c1 [compound 92] | > 10000 | > 1000
25 | CN1CCC[C@@H](Nc2nnc(-c3ccc(C(F)(F)F)cc3)cc2Cl)C1 [compound 41] | > 10000 | 100 to 500

Row | SMILES | IC50 [1] [nM] | IC50 [2] [nM]
26 | CC(C)c1cc(N[C@@H]2CCCN(C)C2)nnc1-c1ccc(C(F)(F)F)cc1 [compound 23] | > 10000 | 100 to 500
27 | Cc1cccc(-c2nnc(N[C@@H]3CCCN(C)C3)cc2C)c1 [compound 44] | > 10000 | 100 to 500
28 | Cc1cc(F)ccc1-c1ccc(N[C@@H]2CCCN(C)C2)nn1 [compound 134] | > 10000 | 100 to 500
29 | Cc1cc(N[C@@H]2CCCN(C)C2)nnc1-c1cc(C)c(F)c(C)c1 [compound 33] | > 10000 | 100 to 500
30 | Cc1ccc(-c2cc(C(F)(F)F)c(N[C@@H]3CCCN(C)C3)nn2)cc1 [compound 91] | > 10000 | > 1000
31 | Cc1cc(-c2ccc(C(F)(F)F)c(Cl)c2)nnc1N[C@@H]1CCCN(C)C1 [compound 105] | > 10000 | > 1000
32 | Cc1cc(N[C@@H]2CCCN(CC(F)(F)F)C2)nnc1-c1ccc(F)cc1 [compound 115] | 5000 to 10000 | > 1000
33 | Cc1cc(N[C@@H]2CCCN(CCF)C2)nnc1-c1ccc(C(F)(F)F)cc1 [compound 25] | > 10000 | 50 to 100
34 | Cc1cc(O[C@@H]2CCCN(C)C2)nnc1-c1ccc(C(F)(F)F)cc1 [compound 177, (R)-4-methyl-6-((1-methylpiperidin-3-yl)oxy)-3-(4-(trifluoromethyl)phenyl)pyridazine] | > 10000 | 100 to 500
35 | Cc1cc(N[C@@H]2CCCN(C(C)C)C2)nnc1-c1ccc(Cl)cc1 [compound 156] | > 10000 | ≤ 10
36 | Cc1cc(-c2cc(C)c(N[C@@H]3CCCN(C)C3)nn2)ccc1C(F)(F)F [compound 100] | > 10000 | > 1000
37 | Cc1cc(Cl)ccc1-c1nnc(N[C@@H]2CCCN(C)C2)cc1C [compound 123] | > 10000 | ≤ 10
38 | Cc1cc(N[C@@H]2CCCN(C(C)C)C2)nnc1-c1ccc(F)cc1 [compound 135] | > 10000 | 10 to 50
39 | Cc1cc(C(F)(F)F)ccc1-c1ccc(N[C@@H]2CCCN(C)C2)nn1 [compound 19] | 5000 to 10000 | 100 to 500
40 | Cc1cc(-c2ccc(C(F)(F)F)c(F)c2)nnc1N[C@@H]1CCCN(C)C1 [compound 38] | > 10000 | 500 to 1000
41 | Cc1cc(N[C@@H]2CCCN(C)C2)nnc1-c1cccc(C(F)(F)F)c1 [compound 46] | > 10000 | > 1000
42 | COc1cc(C(F)(F)F)ccc1-c1nnc(N[C@@H]2CCCN(C)C2)cc1C [compound 8] | > 10000 | 10 to 50
43 | Cc1cc(-c2ccc(F)c(Cl)c2)nnc1N[C@@H]1CCCN(C)C1 [compound 73] | > 10000 | 100 to 500
44 | Cc1cc(-c2ccc(N[C@@H]3CCCN(C)C3)nn2)cc(C)c1F [compound 106] | > 10000 | > 1000
45 | COc1cccc(-c2nnc(N[C@@H]3CCCN(C)C3)cc2C)c1 [compound 52] | > 10000 | > 1000
46 | CN1CCC[C@@H](Nc2cc(C#N)c(-c3ccc(C(F)(F)F)cc3)nn2)C1 [compound 59] | > 10000 | 50 to 100
47 | Cc1cc(Cl)ccc1-c1nnc(N[C@@H]2CCCN(C(C)C)C2)cc1C [compound 200] | > 10000 | ≤ 10
48 | COc1cc(N[C@@H]2CCCN(C)C2)nnc1-c1ccc(C(F)(F)F)cc1C [compound 172] | > 10000 | > 1000
49 | Cc1cc(F)cc(C)c1-c1ccc(N[C@@H]2CCCN(C)C2)nn1 [compound 110] | 5000 to 10000 | > 1000
50 | Cc1cc(-c2cccc(F)c2)nnc1N[C@@H]1CCCN(C)C1 [compound 56] | > 10000 | > 1000
